In PubChem BioAssay (NCI):
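1) Cells in 96-well plates. 2) Compound, 48 h, 5 concentrations. 3) Linear interpolation between surrounding doses. 4) Unreached endpoint = highest concentration. GI50 is the concentration that inhibits growth by half. TGI: total growth inhibition.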

Assays:
Assay in all cases: NCI-60 cell line screen, 48 h
786-0 renal = tested on: 786-0 renal
A498 renal = tested on: A498 renal
A549 NSCLC = tested on: A549 NSCLC
ACHN renal = tested on: ACHN renal
BT-549 breast = tested on: BT-549 breast
CAKI-1 renal = tested on: CAKI-1 renal
CCRF-CEM leukemia = tested on: CCRF-CEM leukemia
COLO 205 colon = tested on: COLO 205 colon
DU-145 prostate = tested on: DU-145 prostate
EKVX NSCLC = tested on: EKVX NSCLC
HCC-2998 colon = tested on: HCC-2998 colon
HCT-116 colon = tested on: HCT-116 colon
HCT-15 colon = tested on: HCT-15 colon
HL-60(TB) leukemia = tested on: HL-60(TB) leukemia
HOP-62 NSCLC = tested on: HOP-62 NSCLC
HOP-92 NSCLC = tested on: HOP-92 NSCLC
HS 578T breast = tested on: HS 578T breast
HT29 colon = tested on: HT29 colon
IGROV1 ovarian = tested on: IGROV1 ovarian
K-562 leukemia = tested on: K-562 leukemia
KM12 colon = tested on: KM12 colon
LOX IMVI melanoma = tested on: LOX IMVI melanoma
M14 melanoma = tested on: M14 melanoma
MALME-3M melanoma = tested on: MALME-3M melanoma
MCF7 breast = tested on: MCF7 breast
MDA-MB-231 breast = tested on: MDA-MB-231 breast
MDA-MB-435 = tested on: MDA-MB-435
MOLT-4 leukemia = tested on: MOLT-4 leukemia
NCI-H226 lung = tested on: NCI-H226 lung
NCI-H23 lung = tested on: NCI-H23 lung
NCI-H460 lung = tested on: NCI-H460 lung
NCI-H522 lung = tested on: NCI-H522 lung
NCI/ADR-RES ovarian = tested on: NCI/ADR-RES ovarian
OVCAR-3 ovarian = tested on: OVCAR-3 ovarian
OVCAR-4 ovarian = tested on: OVCAR-4 ovarian
OVCAR-5 ovarian = tested on: OVCAR-5 ovarian
OVCAR-8 ovarian = tested on: OVCAR-8 ovarian
PC-3 prostate = tested on: PC-3 prostate
RPMI-8226 leukemia = tested on: RPMI-8226 leukemia
RXF 393 renal = tested on: RXF 393 renal
SF-268 CNS = tested on: SF-268 CNS
SF-295 CNS = tested on: SF-295 CNS
SF-539 CNS = tested on: SF-539 CNS
SK-MEL-2 melanoma = tested on: SK-MEL-2 melanoma
SK-MEL-28 melanoma = tested on: SK-MEL-28 melanoma
SK-MEL-5 melanoma = tested on: SK-MEL-5 melanoma
SK-OV-3 ovarian = tested on: SK-OV-3 ovarian
SN12C renal = tested on: SN12C renal
SNB-19 CNS = tested on: SNB-19 CNS
SNB-75 CNS = tested on: SNB-75 CNS
SR leukemia = tested on: SR leukemia
SW-620 colon = tested on: SW-620 colon
T-47D breast = tested on: T-47D breast
TK-10 renal = tested on: TK-10 renal
U251 CNS = tested on: U251 CNS
UACC-257 melanoma = tested on: UACC-257 melanoma
UACC-62 melanoma = tested on: UACC-62 melanoma
UO-31 renal = tested on: UO-31 renal

SMILES: O=C(c1ccc(C(F)(F)F)c(Cl)c1)N(Cc1ccc(Cl)cc1)c1ccc(-c2cc(C(F)(F)F)[nH]n2)c(O)c1
- GI50 (786-0 renal): 0.895 µM
- TGI (786-0 renal): 1.7 µM
- GI50 (A498 renal): 1.04 µM
- TGI (A498 renal): 2.66 µM
- GI50 (A549 NSCLC): 1.35 µM
- TGI (A549 NSCLC): 5.11 µM
- GI50 (ACHN renal): 1.24 µM
- TGI (ACHN renal): 4.05 µM
- GI50 (BT-549 breast): 1.31 µM
- TGI (BT-549 breast): 3.99 µM
- GI50 (CAKI-1 renal): 1.01 µM
- TGI (CAKI-1 renal): 3.04 µM
- GI50 (CCRF-CEM leukemia): 1.11 µM
- TGI (CCRF-CEM leukemia): 5.33 µM
- GI50 (COLO 205 colon): 0.865 µM
- TGI (COLO 205 colon): 1.64 µM
- GI50 (DU-145 prostate): 1.43 µM
- TGI (DU-145 prostate): 5.34 µM
- GI50 (EKVX NSCLC): 1.3 µM
- TGI (EKVX NSCLC): 4.57 µM
- GI50 (HCC-2998 colon): 1.43 µM
- TGI (HCC-2998 colon): 4.63 µM
- GI50 (HCT-116 colon): 0.705 µM
- TGI (HCT-116 colon): 1.58 µM
- GI50 (HCT-15 colon): 0.777 µM
- TGI (HCT-15 colon): 1.97 µM
- GI50 (HL-60(TB) leukemia): 1.12 µM
- TGI (HL-60(TB) leukemia): 2.69 µM
- GI50 (HOP-62 NSCLC): 1.02 µM
- TGI (HOP-62 NSCLC): 2.33 µM
- GI50 (HOP-92 NSCLC): 0.629 µM
- TGI (HOP-92 NSCLC): 2.14 µM
- GI50 (HS 578T breast): 1.05 µM
- TGI (HS 578T breast): 3.03 µM
- GI50 (HT29 colon): 1.25 µM
- TGI (HT29 colon): 5.55 µM
- GI50 (IGROV1 ovarian): 0.887 µM
- TGI (IGROV1 ovarian): 2.13 µM
- GI50 (K-562 leukemia): 1.05 µM
- TGI (K-562 leukemia): 5.16 µM
- GI50 (KM12 colon): 0.951 µM
- TGI (KM12 colon): 2.19 µM
- GI50 (LOX IMVI melanoma): 0.819 µM
- TGI (LOX IMVI melanoma): 1.5 µM
- GI50 (M14 melanoma): 1.01 µM
- TGI (M14 melanoma): 2.43 µM
- GI50 (MALME-3M melanoma): 0.941 µM
- TGI (MALME-3M melanoma): 2.36 µM
- GI50 (MCF7 breast): 1.12 µM
- TGI (MCF7 breast): 3.85 µM
- GI50 (MDA-MB-231 breast): 0.964 µM
- TGI (MDA-MB-231 breast): 2.21 µM
- GI50 (MDA-MB-435): 1.25 µM
- TGI (MDA-MB-435): 3.66 µM
- GI50 (MOLT-4 leukemia): 1.32 µM
- TGI (MOLT-4 leukemia): 5.09 µM
- GI50 (NCI-H226 lung): 1.08 µM
- TGI (NCI-H226 lung): 2.94 µM
- GI50 (NCI-H23 lung): 0.91 µM
- TGI (NCI-H23 lung): 2.45 µM
- GI50 (NCI-H460 lung): 1.16 µM
- TGI (NCI-H460 lung): 3.12 µM
- GI50 (NCI-H522 lung): 0.893 µM
- TGI (NCI-H522 lung): 3.31 µM
- GI50 (NCI/ADR-RES ovarian): 1.11 µM
- TGI (NCI/ADR-RES ovarian): 2.99 µM
- GI50 (OVCAR-3 ovarian): 0.845 µM
- TGI (OVCAR-3 ovarian): 2.19 µM
- GI50 (OVCAR-4 ovarian): 1.08 µM
- TGI (OVCAR-4 ovarian): 4.87 µM
- GI50 (OVCAR-5 ovarian): 1.07 µM
- TGI (OVCAR-5 ovarian): 4.26 µM
- GI50 (OVCAR-8 ovarian): 1.2 µM
- TGI (OVCAR-8 ovarian): 3.91 µM
- GI50 (PC-3 prostate): 0.897 µM
- TGI (PC-3 prostate): 2.91 µM
- GI50 (RPMI-8226 leukemia): 0.659 µM
- TGI (RPMI-8226 leukemia): 2.23 µM
- GI50 (RXF 393 renal): 0.923 µM
- TGI (RXF 393 renal): 2.04 µM
- GI50 (SF-268 CNS): 1.32 µM
- TGI (SF-268 CNS): 5.19 µM
- GI50 (SF-295 CNS): 1.08 µM
- TGI (SF-295 CNS): 2.87 µM
- GI50 (SF-539 CNS): 0.994 µM
- TGI (SF-539 CNS): 2.09 µM
- GI50 (SK-MEL-2 melanoma): 1.16 µM
- TGI (SK-MEL-2 melanoma): 3.13 µM
- GI50 (SK-MEL-28 melanoma): 1.43 µM
- TGI (SK-MEL-28 melanoma): 5.16 µM
- GI50 (SK-MEL-5 melanoma): 0.816 µM
- TGI (SK-MEL-5 melanoma): 1.55 µM
- GI50 (SK-OV-3 ovarian): 1.37 µM
- TGI (SK-OV-3 ovarian): 4.89 µM
- GI50 (SN12C renal): 0.886 µM
- TGI (SN12C renal): 2.04 µM
- GI50 (SNB-19 CNS): 1.61 µM
- TGI (SNB-19 CNS): 6.35 µM
- GI50 (SNB-75 CNS): 0.989 µM
- TGI (SNB-75 CNS): 3.24 µM
- GI50 (SR leukemia): 0.983 µM
- TGI (SR leukemia): 2.87 µM
- GI50 (SW-620 colon): 0.958 µM
- TGI (SW-620 colon): 2.4 µM
- GI50 (T-47D breast): 0.948 µM
- TGI (T-47D breast): 3.43 µM
- GI50 (TK-10 renal): 1.41 µM
- TGI (TK-10 renal): 3.99 µM
- GI50 (U251 CNS): 0.882 µM
- TGI (U251 CNS): 2.25 µM
- GI50 (UACC-257 melanoma): 1.04 µM
- TGI (UACC-257 melanoma): 3.57 µM
- GI50 (UACC-62 melanoma): 0.8 µM
- TGI (UACC-62 melanoma): 1.97 µM
- GI50 (UO-31 renal): 0.717 µM
- TGI (UO-31 renal): 1.65 µM
